Measurements as given in the NIST ThermoML archive (doi:10.1016/j.fluid.2005.03.026).

Columns and labels:
[1] = molar heat capacity at constant pressure; conditions: 101.3 kPa, Liquid, Small sample (50 mg) DSC
[2] = molar heat capacity at constant pressure; xn = mol fraction of the nth substance listed; conditions: 101.3 kPa, Liquid, Small sample (50 mg) DSC

CCCCCCCCCC [decane]
[1]
Conditions | molar heat capacity at constant pressure [J/K/mol]
288.15 K | 310.09
298.15 K | 315.04
308.15 K | 320.03

CCCCCCCCCC [decane] + COC(=O)OC
molar heat capacity at constant pressure [J/K/mol], [2]
Conditions | 288.15 K | 298.15 K | 308.15 K
x2 = 0 | 310.09 | 315.04 | 320.03
x2 = 0.0486 | 302.45 | 307.21 | 311.97
x2 = 0.1015 | 294.55 | 298.95 | 303.55
x2 = 0.1491 | 287.67 | 291.87 | 296.24
x2 = 0.198 | 280.61 | 284.73 | 288.82
x2 = 0.3041 | 266.76 | 269.88 | 273.33
x2 = 0.4015 | 255.05 | 256.83 | 259.45
x2 = 0.4497 | 250.05 | 250.5 | 252.64
x2 = 0.5505 | 242.42 | 236.43 | 238.36
x2 = 0.6011 | 237.62 | 229.81 | 230.9
x2 = 0.6454 | 231.62 | 223.97 | –
x2 = 0.6945 | 223.46 | 216.47 | 216.49
x2 = 0.7943 | 202.82 | 198.92 | 199.64
x2 = 0.8464 | – | 189.34 | 190.56
x2 = 0.8975 | 179.17 | 180.34 | 181.8
x2 = 0.949 | 170.97 | 172.02 | 173.51

Cc1ccc(C)cc1 [1,4-dimethylbenzene] + CCCCCCCCCC
molar heat capacity at constant pressure [J/K/mol], [2]
Conditions | 288.15 K | 298.15 K | 308.15 K
x1 = 0.05066 | 303.41 | 308.28 | 313.15
x1 = 0.1092 | 295.7 | 300.41 | 305.32
x1 = 0.1983 | 283.92 | 288.58 | 293.34
x1 = 0.3105 | 269 | 273.63 | 278.21
x1 = 0.3427 | 264.73 | 269.34 | 273.97
x1 = 0.4538 | 250.03 | 254.47 | 258.95
x1 = 0.4919 | 244.95 | 249.41 | 253.84
x1 = 0.5995 | 230.71 | 235.12 | 239.35
x1 = 0.6975 | 217.77 | 222.04 | 226.15
x1 = 0.7866 | 206.1 | 210.33 | 214.31
x1 = 0.8403 | 199.13 | 203.21 | 207.08
x1 = 0.8993 | 191.5 | 195.54 | 199.3
x1 = 0.9499 | 185.04 | 188.96 | 192.6

Cc1ccc(C)cc1 [1,4-dimethylbenzene] + COC(=O)OC
molar heat capacity at constant pressure [J/K/mol], [2]
Conditions | 288.15 K | 298.15 K | 308.15 K
x2 = 0 | 178.86 | 182.56 | 186.15
x2 = 0.04522 | 178.07 | 181.79 | 185.28
x2 = 0.09687 | 177.32 | 180.82 | 184.22
x2 = 0.2003 | 175.72 | 178.96 | 182.14
x2 = 0.3136 | 173.97 | 176.99 | 179.84
x2 = 0.4125 | 172.39 | 175.09 | 177.74
x2 = 0.4946 | 171.06 | 173.56 | 176.04
x2 = 0.5368 | 170.43 | 172.79 | 175.13
x2 = 0.6528 | 168.55 | 170.61 | 172.04
x2 = 0.8445 | 165.6 | 167.14 | 168.84
x2 = 0.9 | 164.89 | 166.25 | 167.79

COC(=O)OC [dimethyl carbonate] + Cc1ccc(C)cc1
[2], x1 = 1
Conditions | molar heat capacity at constant pressure [J/K/mol]
288.15 K | 163.61
298.15 K | 164.65
308.15 K | 165.92

COC(=O)OC [dimethyl carbonate]
[1]
Conditions | molar heat capacity at constant pressure [J/K/mol]
288.15 K | 163.61
298.15 K | 164.65
308.15 K | 165.92

Cc1ccc(C)cc1 [1,4-dimethylbenzene]
[1]
Conditions | molar heat capacity at constant pressure [J/K/mol]
288.15 K | 178.86
298.15 K | 182.56
308.15 K | 186.15
